Reference: patent US10501472B2, “Method to isolate inoscavin a from Fulviformes fastuosus and medicinal preparation thereof to treat rhabdomyosarcoma cancer conditions” (University of Colombo, priority 2015, dated 2019)
Entries after “also recorded” stand apart in the source; their conditions may differ. Like-named read-outs stand apart in the source and are kept apart here.

Columns and labels:
[1] = test system: RD cells; assay: Ethidium bromide/acridine orange staining for apoptosis; assay type: cell-based, human; conditions: 24 hours
Description: Ethidium bromide and acridine orange staining were performed to investigate the apoptosis induced by inoscavin A against RD cells. Ethidium bromide (EB) is only occupied by cells with damaged cell membranes. Acridine orange (AO) permeates via both live and dead cells. Cells were seeded in chamber slides and the confluent layer was treated with the test solution containing inoscavin A at different concentrations for 24 hours at 37° C. as described previously. The adherent cells were washed with 200 μL of PBS and 2 μL of the dye mixture containing ethidium bromide ([…]) and acridine orange ([…]) was placed on each well of the chamber slide. Chamber slides were examined immediately under the fluorescence microscope. Images were photographed using a Nikon D 700 camera connected to the microscope.

[2] = test system: RD cell line (human rhabdomyosarcoma); assay: MTT assay, antiproliferative activity against RD cell line; assay type: cell-based; conditions: for IC50: Homo sapiens, RD, MTT, 24 hour treatment
Description: (§1) RD and CC-1 cell lines were cultured in DMEM supplemented with 10% heat inactivated fetal bovine serum (FBS), 3% glutamine, sodium bicarbonate and antibiotic (penicillin/streptomycin). The cells were incubated at 37° C. in a humidified CO2 incubator.
Antiproliferative activities of inoscavin A against RD and CC-1 cells were determined using MTT (3, 4, 5-(dimethyl-thiazol-2-yl) 2-5-diphenyl tetrazolium bromide) assay. Metabolically active cells reduce MTT in to purple colored formazan crystals. Adherent cell lines were transferred with 0.12% trypsin and 0.5% EDTA and cells (2×10^5 cells/well) were seeded in 24-well plates and incubated overnight with 1 mL of the DMEM medium described above. The stock solution of inoscavin A was prepared in DMSO at a concentration of 1 mg/ml and subsequently diluted up to 1000 ng/ml in order to prepare the working standards. The resulting monolayers of RD cells and CC-1 cells (70% confluence) were treated with different concentrations of the test solution and incubated for 24 hours at 37° C.
In all experiments, cycloheximide (5 mM, 50 μl) was used as the positive control and negative control contained 0.25% DMSO in growth media. The culture medium was replaced with fresh medium (1 ml) after 24 hours and MTT (5 mg/ml; 100 μl) was added to each well. The cells were incubated at 37° C. for 3 hours and the medium was aspirated carefully. The remaining formazan crystals were solubilized with 750 μl of 0.05 M HCl (in 2-propanol) and absorbance was measured at 570 nm. Percentage cell viability was determined using the equation below.
(§2) The net absorbance from the wells of the untreated cells (negative control) was taken as the 100% viability. IC50 of the test solution against RD cells was determined by regression analysis of the corresponding dose response curve. CC50 of the test solution against CC-1 cell line was also calculated using the regression analysis. Safety of the compound for normal cells was determined in terms of selectivity index (SI) by calculating the ratio of CC50/IC50. SI value>2 is considered as safe.

[3] = test system: RD cells; assay: Microscopic examination of morphological changes of treated cells; assay type: cell-based, human; conditions: highest concentration 50 ng/mL, 24 hours
Description: The morphological changes of RD cells and CC-1 cells after the treatment with different concentrations of the test solution over 24 hours were detected by microscopic examination of cells. Morphological changes were compared with the negative and positive controls under fluorescence microscope.

[4] = test system: CC-1 cell line (normal epithelial cells); assay: MTT assay, cytotoxicity against normal CC-1 cell line; assay type: cell-based, mice; conditions: CC50 in CC-1 cells / IC50 in RD cells
Description: as §1
Antiproliferative activities of inoscavin A against RD and CC-1 cells were determined using MTT (3, 4, 5-(dimethyl-thiazol-2-yl) 2-5-diphenyl tetrazolium bromide) assay. Metabolically active cells reduce MTT in to purple colored formazan crystals. Adherent cell lines were transferred with 0.12% trypsin and 0.5% EDTA and cells (2×10^5 cells/well) were seeded in 24-well plates and incubated overnight with 1 mL of the DMEM medium described above. […]
In all experiments, cycloheximide (5 mM, 50 μl) was used as the positive control and negative control contained 0.25% DMSO in growth media. […] The remaining formazan crystals were solubilized with 750 μl of 0.05 M HCl (in 2-propanol) and absorbance was measured at 570 nm. Percentage cell viability was determined using the equation below.
as §2, with “Safety of the compound for normal cells was determined in terms of selectivity index (SI) by calculating the ratio of CC50/IC50. SI value>2 is considered as safe.” left out

- IC50 ([2]; mean of three independent sample preparations, read-out: IC50 against RD cells): 28 nM
- IC50 ([2]; read-out: IC50 against RD cell line): 0.0128 µg/mL
Structure (SMILES): CC1=CC(=O)C2(O1)c1c(cc(/C=C/c3ccc(O)c(O)c3)oc1=O)OC2c1ccc(O)c(O)c1 (stereo not shown) [inoscavin A, 2-(3,4-dihydroxyphenyl)-6-[(E)-2-(3,4-dihydroxyphenyl)ethenyl]-5′-methylspiro[2H-furo[3,2-c]pyran-3,2′-furan]-3′,4-dione]
- apoptosis induction (AO/EB staining) [1]: confirmed the apoptosis induced by inoscavin A; also recorded: mediated through apoptosis
- maximum inhibition of cell growth ([2]; RD cells, concentrations over 60 ng/mL to 100 ng/mL): 75%
- antiproliferative activity relative to mangiferin ([2]; RD cells, inoscavin A versus mangiferin): approximately 2500 times
- morphological changes of RD cells [3]: detached and round shape dead cells
- selectivity index (SI), ratio of CC50/IC50 [4]: 6185.18
